Data as given in patent US20260200946A1, “KRAS(G12V) INHIBITORS” (Ranok Therapeutics (Hangzhou) Co. Ltd., priority 2022, published 2026).

Columns and labels:
KRAS(G12V)/SOS1 = molecular target: T1, KRAS(G12V)/SOS1 (Homo sapiens, UniProt P01116, G12V); assay: KRAS(G12V)/SOS1 homogeneous time-resolved fluorescence (HTRF) assay; type: binding; settings: absence of GTP; 4° C., 3 hours; read-out: HTRF of KRASG12V-SOS1
T1 construct: purchased Cisbio 63ADK000CB18PEH
Protocol: Binding of test compounds to KRAS(G12V) target protein, which in turn blocks KRAS(G12V) interaction with the SOS1 protein, was measured in the absences of GTP by homogeneous time-resolved fluorescence using the KRAS-G12V/SOS1 Binding Assay Kit (Cisbio, 63ADK000CB18PEH), following the manufacturer's instructions, except as noted. 3-fold serial dilutions of each test compound were prepared ranging from 20 µM to 1.02 nM. The test compound was mixed and incubated with reaction components, incubated in a sealed plate at 4° C. for 3 hours and fluorescence was measured using a PerkinElmer Envision plate reader. The KRAS(G12V)-SOS1 IC50 values (the concentration of 50% of the maximal inhibition) were calculated using GraphPad Prism 8.0 software.

SW620 cells = assay: Cancer cell line proliferation (CellTiter-Glo), SW620; type: cell-based; settings: Homo sapiens, SW-620, SW620 colorectal adenocarcinoma, homozygous G12V, 72 hr
Protocol: Cell lines were cultured essentially according to ATCC recommendations. SW620 and NCIH727 cells were plated in 384-well tissue culture plates at 1,000 cells/well and incubated at 37° C./5% CO2 for 72 hr in 40 μl of media. […] Each cell line was then treated with test compounds at various concentrations with a final concentration of 0.5% DMSO/well, and then incubated at 37° C./5% CO2 for 72 hr. 40 μl of CellTiter-Glo® Reagent (Promega Corporation, Madison, WI) was added to each well and processed according manufacturer's protocol. Results were analyzed and IC50 values were calculated in GraphPad 8.0 software.

NCIH727 cells = assay: Cancer cell line proliferation (CellTiter-Glo), NCI-H727; type: cell-based; settings: Homo sapiens, 72 h, NCIH727 lung carcinoid, heterozygous G12V
In short: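 NCI-H727 cells (1,000/well) were grown 72 h at 37 °C/5% CO2, then exposed to compound at various concentrations (0.5% DMSO final) for a further 72 h. Viability was read by CellTiter-Glo luminescence, and IC50 values were calculated from the dose-response.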

T1 sequence (P01116 1-188 isoform P01116-2 G12V): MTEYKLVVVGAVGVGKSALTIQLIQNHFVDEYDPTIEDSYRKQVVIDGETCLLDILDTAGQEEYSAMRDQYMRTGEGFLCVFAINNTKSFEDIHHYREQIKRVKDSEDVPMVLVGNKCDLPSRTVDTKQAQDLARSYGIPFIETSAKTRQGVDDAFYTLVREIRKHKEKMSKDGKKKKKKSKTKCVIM

| Structure (SMILES) | IC50 (KRAS(G12V)/SOS1) | EC50 (SW620 cells) | EC50 (NCIH727 cells) |
| --- | --- | --- | --- |
| C#Cc1c(F)ccc2cc(O)cc(-c3ncc4c(N5CC6CCC(C5)N6S(=O)(=O)CC#N)nc(OCC5(CN6CCC(F)CC6)CC5)nc4c3F)c12 [Example 33] | 100 to 1000 nM | > 1000 nM | > 1000 nM |
| C#Cc1c(F)ccc2cc(O)cc(-c3nc(OC)c4c(N5CC6CCC(C5)N6C(=O)NC5(C#N)CC5)nc(OCC5(CN6CCC(F)CC6)CC5)nc4c3F)c12 [Example 34] | 100 to 1000 nM | 100 to 1000 nM | 100 to 1000 nM |
| C#Cc1c(F)ccc2cc(O)cc(-c3ncc4c(N5CC6CCC(C5)N6C(=O)NC5(C#N)CC5)nc(OCC5(CN6CCC(F)CC6)CC5)nc4c3F)c12 [Example 35] | 100 to 1000 nM | 100 to 1000 nM | 100 to 1000 nM |
| C#Cc1c(F)ccc2cc(O)cc(-c3ncc4c(N5CC6CCC(C5)N6C(=O)[C@H]5CCN(C(=O)OC)C5)nc(OCC5(CN6CCC(F)CC6)CC5)nc4c3F)c12 [Example 36] | 100 to 1000 nM | > 1000 nM | > 1000 nM |
| C#Cc1c(F)ccc2cc(O)cc(-c3nc(OC)c4c(N5CC6CCC(C5)N6C(=O)NCC#N)nc(OCC5(CN6CCC(F)CC6)CC5)nc4c3F)c12 [Example 37] | 100 to 1000 nM | 100 to 1000 nM | 100 to 1000 nM |
| C#Cc1c(F)ccc2cc(O)cc(-c3nc(OC)c4c(N5CC6CCC(C5)N6C(=O)NC(C)C#N)nc(OCC5(CN6CCC(F)CC6)CC5)nc4c3F)c12 (stereo not drawn) [Example 38] | < 100 nM | 100 to 1000 nM | 100 to 1000 nM |
| C#Cc1c(F)ccc2cc(O)cc(-c3ncc4c(N5CC6CCC(C5)N6C(=O)CC(F)(F)F)nc(OCC5(CN6CCC(F)CC6)CC5)nc4c3F)c12 [Example 39] | 100 to 1000 nM | > 1000 nM | > 1000 nM |
| C#Cc1c(F)ccc2cc(O)cc(-c3ncc4c(N5CC6CCC(C5)N6C(=O)OC(C)(C)C)nc(OCC5(CN6CCC(F)CC6)CC5)nc4c3F)c12 [Example 40] | 100 to 1000 nM | > 1000 nM | > 1000 nM |
| C#Cc1c(F)ccc2cc(O)cc(-c3ncc4c(N5CC6CCC(C5)N6C(C)=O)nc(OCC5(CN6CCC(F)CC6)CC5)nc4c3F)c12 [Example 41] | 100 to 1000 nM | > 1000 nM | > 1000 nM |
| C#Cc1c(F)ccc2cc(O)cc(-c3ncc4c(N5CC6CCC(C5)N6C(=O)OC(C)C)nc(OCC5(CN6CCC(F)CC6)CC5)nc4c3F)c12 [Example 42] | 100 to 1000 nM | > 1000 nM | > 1000 nM |
| C#Cc1c(F)ccc2cc(O)cc(-c3ncc4c(N5CC6CCC(C5)N6C(=O)C(C)(C)C)nc(OCC5(CN6CCC(F)CC6)CC5)nc4c3F)c12 [Example 43] | 100 to 1000 nM | > 1000 nM | > 1000 nM |
| C#Cc1c(F)ccc2cc(O)cc(-c3nc(OC)c4c(N5CC6CCC(C5)N6C(=O)C5CC5(F)F)nc(OCC5(CN6CCC(F)CC6)CC5)nc4c3F)c12 (stereo not drawn) [Example 44] | < 100 nM | 100 to 1000 nM | 100 to 1000 nM |
| C#Cc1c(F)ccc2cc(O)cc(-c3nc(OC)c4c(N5CC6CCC(C5)N6C(=O)C5(C(F)(F)F)CC5)nc(OCC5(CN6CCC(F)CC6)CC5)nc4c3F)c12 [Example 45] | < 100 nM | > 1000 nM | > 1000 nM |
| C#Cc1c(F)ccc2cc(O)cc(-c3nc(OC)c4c(N5CC6CCC(C5)N6C(=O)NC5CC5)nc(OCC5(CN6CCC(F)CC6)CC5)nc4c3F)c12 [Example 46] | < 100 nM | 100 to 1000 nM | 100 to 1000 nM |
| C#CCCC(=O)N1C2CCC1CN(c1nc(OCC3(CN4CCC(F)CC4)CC3)nc3c(F)c(-c4cc(O)cc5ccc(F)c(C#C)c45)ncc13)C2 [Example 47] | < 100 nM | > 1000 nM | > 1000 nM |
| C#Cc1c(F)ccc2cc(O)cc(-c3ncc4c(N5CC6CCC(C5)N6C(=O)NC5CCCC5)nc(OCC5(CN6CCC(F)CC6)CC5)nc4c3F)c12 [Example 48] | < 100 nM | > 1000 nM | > 1000 nM |
| C#Cc1c(F)ccc2cc(O)cc(-c3ncc4c(N5CC6CCC(C5)N6C(=O)NC5CCNC5)nc(OCC5(CN6CCC(F)CC6)CC5)nc4c3F)c12 (stereo not drawn) [Example 49] | < 100 nM | > 1000 nM | > 1000 nM |
| C#Cc1c(F)ccc2cc(O)cc(-c3nc(OC)c4c(N5CC6CCC(C5)N6C(=O)C5CC5)nc(OCC5(CN6CCC(F)CC6)CC5)nc4c3F)c12 [Example 50] | < 100 nM | > 1000 nM | > 1000 nM |
| C#Cc1c(F)ccc2cc(O)cc(-c3ncc4c(N5CC6CCC(C5)N6C(=O)NC5(C(F)(F)F)CC5)nc(OCC5(CN6CCC(F)CC6)CC5)nc4c3F)c12 [Example 51] | < 100 nM | > 1000 nM | > 1000 nM |
| C#Cc1c(F)ccc2cc(O)cc(-c3nc(OC)c4c(N5CC6CCC(C5)N6C(=O)C(C)C(F)(F)F)nc(OCC5(CN6CCC(F)CC6)CC5)nc4c3F)c12 (stereo not drawn) [Example 52] | < 100 nM | > 1000 nM | > 1000 nM |
